Data from PMC11312998, “Molecular Pro-Apoptotic Activities of Flavanone Derivatives in Cyclodextrin Complexes: New Implications for Anticancer Therapy” (International Journal of Molecular Sciences, 2024).
≈ marks a conversion by molar mass, not a printed value. Like-named read-outs stand apart in the source and are kept apart here.

Key:
HCC38 = experiment: MTT cytotoxicity assay; type: cell-based; conditions: Homo sapiens, 24 h incubation, mean ± SEM
Procedure: (§1) Cell viability was determined using the metabolic microplate spectrophotometric assay with Methylthiazolyl diphenyltetrazolium bromide (MTT), i.e., 3-(4,5-Dimethyl-2-thiazolyl)-2,5-diphenyl-2H-tetrazolium bromide (Sigma-Aldrich; St. Louis, MO, USA). The anticancer activity of the investigated compounds was evaluated in vitro on the basis of their ability to inhibit the proliferation of various cancer cells. The appropriate number of cells for a given cell line (6–8 × 10^3 cells/mL) were seeded into sterile, colorless 96-well microplates. After 24 h of culture, specific wells of the microplate were treated with test compounds (10–200 µmol/L concentration) and incubated in a CO2 incubator for 24 h. The medium was then removed, the cell monolayer was washed twice with sterile PBS solution and fresh culture medium was added to the wells of the microplate.
(§2) After 48 h of cell culture, the MTT test was conducted. In each well of the microplate, 50 µL of tetrazolium salt solution (final concentration 0.05 mg/mL) was added. The microplate was then placed in a CO2 incubator for 3–4 h (depending on the cell line). Following incubation, 100 µL of DMSO (dimethyl sulfoxide, Sigma-Aldrich, St. Louis, MO, USA) was added to the microplate wells to dissolve the purple formazan crystals formed in the environment of living cells. The absorbance of the formazan solution was read at a wavelength of λ = 580 nm and a reference wavelength of λ = 720 nm after gentle mixing (Biotek Power Wave HT, Biotek Instruments, Winooski, VT, USA).
(§3) The percentage of live cells was calculated by comparing the absorbance value of the tested samples with that of the control (cells not treated with compounds). Control absorbance was arbitrarily considered to be 100%.
(§4) In order to determine the contribution of ROS to the cytotoxicity of the tested compounds, the cells were pre-incubated for 1 h with the antioxidant vitamin E (Trolox, Sigma-Aldrich; St. Louis, MO, USA). Cells were seeded into sterile, colorless 96-well microplates at a concentration of 6–8 × 10^3 cells/mL, depending on the cell line. After 24 h of culture, Trolox was added at a final concentration of 50 μM/well. After 1 h of incubation, the antioxidant was washed off, then appropriate concentrations of test compounds (10–200 µmol/L concentration) were added to fresh cell culture medium and incubated for 24 h. The MTT test was then performed under identical experimental conditions, as described in Section 3.1.2.

Hec-1-A = experiment: MTT cytotoxicity assay; type: cell-based; conditions: Homo sapiens, 24 h incubation, mean ± SEM
Procedure: as §1, §2, §3, §4

MCF-7 = experiment: MTT cytotoxicity assay; type: cell-based; conditions: Homo sapiens, MCF7, 24 h incubation, mean ± SEM
Procedure: as §1, §2, §3, §4

MDA-MB-231 = experiment: MTT cytotoxicity assay; type: cell-based; conditions: Homo sapiens, 24 h incubation, mean ± SEM
Procedure: as §1, §2, §3, §4

Ishikawa = experiment: MTT cytotoxicity assay; type: cell-based; conditions: Homo sapiens, Ishikawa, 24 h incubation, mean ± SEM
Procedure: as §1, §2
The percentage of live cells was calculated by comparing the absorbance value of the tested samples with that of the control (cells not treated with compounds). Control absorbance was arbitrarily considered to be 100%. […]

[1] = tested on: breast cancer cells (MCF-7, MDA-MB-231 and HCC38) and endometrial cancer cells (Ishikawa, Hec-1-A); experiment: MTT cytotoxicity assay, summary over the cell lines; type: cell-based, human; conditions: for cytotoxic activity (in words): range of 10–200 µM, all cancer lines
Procedure: as §1, §2
The percentage of live cells was calculated by comparing the absorbance value of the tested samples with that of the control (cells not treated with compounds). Control absorbance was arbitrarily considered to be 100%. […] Moreover, cisplatin (Sigma-Aldrich, St. Louis, MO, USA) was used as a reference compound, and identical incubation conditions were used as described above.

cancer cells = experiment: Reactive oxygen species generation (results not published); type: cell-based
[2] = Isothermal titration calorimetry (ITC) of inclusion complex formation; type: physicochemical; conditions: DMSO, 25 °C
Procedure: Measurements were carried out using a MicroCal VP-ITC100 microcalorimeter equipped with a 1400 μL measurement cell. All titrations were carried out under isothermal conditions at 25 degrees C in DMSO solution, which was used as a solvent. The mixing speed during the measurements was 351 rpm. The 0.2 mM solution of the ligand (3, 3a and 5) located in the measurement cell was titrated with the cyclodextrin solution located in the syringe. Each measurement consisted of 50 injections of cyclodextrin with a volume of 5 uL and a concentration of 5 mM. The interval between individual injections was 300 s. The effect of direct interaction of the ligand with CD was calculated by subtracting the thermal effects of diluting 5 mM cyclodextrin in a pure solvent. The dilution effect of the 0.2 mM ligand solution was negligible. The results obtained were processed in the MicroCall Origin 7 software. Using a single active site model (ITC Tutorial Guide), the stability constant K of the resulting complex, its stoichiometry n and thermodynamic parameters that describe the ongoing process were determined, viz., enthalpy (ΔH), Gibbs free energy (ΔG) and entropy (ΔS).

[3] = Water solubility by UV–Vis spectrophotometry (phase solubility with cyclodextrins); type: physicochemical; conditions: 25 °C, thermodynamic from solid, 298.15 K, without cyclodextrin, read-out: Solubility in H2O
Procedure: Spectrophotometric measurements were performed using a SPECORD 50 single-beam UV–Vis spectrophotometer (Analyst Jena, Thuringia, Germany). The calibration lines of the compounds tested were determined for the concentration range of 3.0 × 10^−6 M to 1 × 10^−4 M (Figure 21). The molar extinction coefficients for 3, 3a, and 5 were determined experimentally in an aqueous ethanol solution; the relevant maximum wavelengths are presented in Table 9. The influence of α-cyclodextrins, β-cyclodextrins and HP-β-cyclodextrins on the solubility of the tested ligands in water was evaluated in three measurement series. Briefly, excess ligand was introduced into closed Eppendorff tubes containing α-CD, β-CD or HP-β-CD solutions, at concentrations ranging from 1 to 90 mM for α-CD and HP-β-CD and from 1 to 15 mM for β-CD. The test tubes were stored for 10 days at a temperature of 298.15 K until equilibrium was achieved. After this time, the solutions were centrifuged using a Microcentrifuge MPW-55 at 13,000 rpm for five minutes. For testing, a clear solution was taken from above the sediment and diluted appropriately so that the spectrum was within the operating range of the spectrophotometer.

[4] = MTT cytotoxicity assay, model of normal cells; type: cell-based; conditions: human, HMEC-1 cells (model of normal cells), 24 h incubation, mean ± SEM, read-out: Cytotoxic effect of analogues incorporated in cyclodextrins and cyclodextrin, IC50
Procedure: as §1, §2, §3

RBCs = experiment: Erythrocyte morphology, phase contrast microscopy; type: cell-based, human; conditions: all tested concentrations; 24 h, 37 °C
Procedure: The experiments on human blood were performed in accordance with Polish national guidelines, and the study protocols were approved by the Bioethics Committee of the Medical University of Lodz, Poland: approval no (RNN/104/20/KE). The blood samples were obtained from healthy donors at the Blood Donation Centre in Lodz. The procedure for […] for erythrotoxicity studies is given in a previous paper. The influence of the synthesized compounds, together with a reference compound on RBC membrane integrity, was performed by lysis assay, described elsewhere. Briefly, 2% RBC suspension in 0.9% NaCl was incubated at 37 °C for 24 h with the tested compounds at concentrations of 100 µmol/L, 50 µmol/L, 25 µmol/L, 10 µmol/L and 1 µmol/L. The samples were centrifuged at 3000 rpm for 10 min, and the absorbance of the supernatant was measured at 550 nm. The results are presented as a percentage of hemolysis where a sample containing 10 μL of 2.0% v/v Triton X-100 was regarded as a positive control contributing to 100% of hemolysis. A sample containing saline solution represented the spontaneous hemolysis of RBCs (control). The experiments were conducted using at least three different biological materials (n = 3). […] Additionally, erythrocyte morphology was evaluated using a phase contrast Opta-Tech inverted microscope at 400× magnification.

[5] = read-out: Cytotoxic effect, IC50
[6] = read-out: Cytotoxic effect of analogues incorporated in cyclodextrins and cyclodextrin, IC50

CCN(CC)c1ccc(/C=C2/C(=O)c3ccccc3OC2c2ccccc2)cc1 (stereo not drawn) [Compound 2]
IC50 (HCC38; [5]): > 200 µM | IC50 (Hec-1-A; [5]): > 200 µM | IC50 (MCF-7; [5]): 122 ± 6.7 µM | IC50 (MDA-MB-231; [5]): > 200 µM | IC50 (Ishikawa; [5]): > 200 µM | cytotoxic activity (in words) [1]: very weak cytotoxic activity | changes in the level of reactive oxygen species generation (in words) (cancer cells): no statistically significant changes

COc1cccc(C2CN=NC23C(=O)c2ccccc2OC3c2ccccc2)c1 (stereo not drawn) [Compound 3a]
IC50 (HCC38; [5]): > 120 µM | IC50 (Hec-1-A; [5]): 67.2 ± 2.5 µM | IC50 (MCF-7; [5]): 84.2 ± 2.2 µM | IC50 (MDA-MB-231; [5]): > 120 µM | IC50 (Ishikawa; [5]): 68.5 ± 4.6 µM | cytotoxic activity (in words) [1]: very weak cytotoxic activity | changes in the level of reactive oxygen species generation (in words) (cancer cells): no statistically significant changes | K (formation constant) ([2]; HP-β-cyclodextrin): 5.66 × 10^3 ± 390 | n (stoichiometry) ([2]; HP-β-cyclodextrin): 0.98 ± 0.09 | ΔG ([2]; HP-β-cyclodextrin): −21,420.7 J mol^−1 | ΔH ([2]; HP-β-cyclodextrin): -0.185 ± 0.0141 kcal/mol | ΔS ([2]; HP-β-cyclodextrin): 69.3 J mol^−1K^−1 | K (formation constant) ([2]; α-cyclodextrin): 1.51 × 10^3 ± 130 | n (stoichiometry) ([2]; α-cyclodextrin): 0.85 ± 0.13 | ΔG ([2]; α-cyclodextrin): −18,145.5 J mol^−1 | ΔH ([2]; α-cyclodextrin): -0.0669 ± 0.021 kcal/mol | ΔS ([2]; α-cyclodextrin): 59.9 J mol^−1K^−1 | K (formation constant) ([2]; β-cyclodextrin): 2.49 × 10^3 ± 200 | n (stoichiometry) ([2]; β-cyclodextrin): 0.92 ± 0.11 | ΔG ([2]; β-cyclodextrin): −19,385.4 J mol^−1 | ΔH ([2]; β-cyclodextrin): -0.202 ± 0.017 kcal/mol | ΔS ([2]; β-cyclodextrin): 62.2 J mol^−1K^−1 | solubility at 10 days [3]: 1.55 µM (≈ 0.596 µg/mL)

Cc1ccc(/C=C2/C(=O)c3ccccc3OC2c2ccccc2)cc1 (stereo not drawn) [Compound 4]
IC50 (HCC38; [5]): 93.2 ± 2.8 µM | IC50 (Hec-1-A; [5]): 44.6 ± 4.5 µM | IC50 (MCF-7; [5]): 53.4 ± 4.1 µM | IC50 (MDA-MB-231; [5]): > 120 µM | IC50 (Ishikawa; [5]): 48.9 ± 6.1 µM | cytotoxic activity (in words) [1]: very weak cytotoxic activity | changes in the level of reactive oxygen species generation (in words) (cancer cells): no statistically significant changes

OC[C@H]1O[C@@H]2O[C@H]3[C@H](O)[C@@H](O)[C@@H](O[C@H]4[C@H](O)[C@@H](O)[C@@H](O[C@H]5[C@H](O)[C@@H](O)[C@@H](O[C@H]6[C@H](O)[C@@H](O)[C@@H](O[C@H]7[C@H](O)[C@@H](O)[C@@H](O[C@H]8[C@H](O)[C@@H](O)[C@@H](O[C@H]1[C@H](O)[C@H]2O)O[C@@H]8CO)O[C@@H]7CO)O[C@@H]6CO)O[C@@H]5CO)O[C@@H]4CO)O[C@@H]3CO [β-CD, β-cyclodextrin, reference compound]
IC50 (HCC38; [6]): > 120 µM | IC50 (Hec-1-A; [6]): > 120 µM | IC50 (MCF-7; [6]): > 120 µM | IC50 (MDA-MB-231; [6]): > 120 µM | IC50 (Ishikawa; [6]): > 120 µM | IC50 at 24 h [4]: > 120 µM | cytotoxic activity of pure cyclodextrin (in words) ([1]; HMEC-1 endothelial cells or any tested cancer cells, 10–120 µM): not found to demonstrate any cytotoxic activity | RBC morphology (in words) (RBCs): no pathological changes in RBCs or damaged cells were observed
